{
  "source": "ChEMBL document CHEMBL3272124",
  "about": "“Synthesis of tetrazole ribonucleosides and their evaluation as antiviral agents. 2. 5-Amino-1-(beta-D-ribofuranosyl)-1H-tetrazole and 5-amino-2-(beta-D-ribofuranosyl)-2H-tetrazole” (J Med Chem, 1976)",
  "note": "Activity calls are given as the source filed them. No cut-off for these calls is given here.",
  "data": [
    {"test_system": "Influenza A virus", "experiment": "Antiviral activity against Influenza A virus A2/Asian/J305 infected in Swiss albino mouse assessed as increase in host survival at 50 mg/kg, ip administered as 7 doses immediately before virus inoculation and at 1, 5, 24, 30, 48 and 72 hrs after virus infection measured on 21st day post-infection", "format": "functional, organism-based", "design": "dose 50 mg/kg", "values": [
      {"smiles": "Nc1nnnn1[C@@H]1O[C@H](CO)[C@@H](O)[C@H]1O", "Activity": "inactive"},
      {"smiles": "NC(=O)c1ncn([C@@H]2O[C@H](CO)[C@@H](O)[C@H]2O)n1", "Activity": "Active"},
      {"smiles": "Nc1nnn([C@@H]2O[C@H](CO)[C@@H](O)[C@H]2O)n1", "Activity": "inactive"}
    ]}
  ]
}
